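At the GI50, growth is halved. The concentration for full growth arrest is given as TGI.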
Legend:
Assay in all cases: inhibition of tumour cell growth, NCI panel, 384-well format
OVCAR-8 ovarian = test system: OVCAR-8 ovarian
M14 melanoma = test system: M14 melanoma
RXF 393 renal = test system: RXF 393 renal
MALME-3M melanoma = test system: MALME-3M melanoma
MCF7 breast = test system: MCF7 breast
SN12C renal = test system: SN12C renal
NCI/ADR-RES ovarian = test system: NCI/ADR-RES ovarian
UACC-62 melanoma = test system: UACC-62 melanoma
HCT-15 colon = test system: HCT-15 colon
MDA-MB-468 breast = test system: MDA-MB-468 breast
786-0 renal = test system: 786-0 renal
TK-10 renal = test system: TK-10 renal
HS 578T breast = test system: HS 578T breast

## Cc1cc2c(C(C)C)c(O)c(O)c(C=O)c2c(O)c1-c1c(C)cc2c(C(C)C)c(O)c(O)c(C=O)c2c1O (tested in a mixture with another compound)
OVCAR-8 ovarian
  GI50: 1750 nM
  TGI: 3.24 µM
M14 melanoma
  GI50: 1830 nM
  TGI: 3.79 µM
RXF 393 renal
  GI50: 604 nM
  TGI: 1960 nM
MALME-3M melanoma
  GI50: 1700 nM
  TGI: 3.47 µM
MCF7 breast
  GI50: 2090 nM
  TGI: 4.51 µM
SN12C renal
  GI50: 1920 nM
  TGI: 3.73 µM
NCI/ADR-RES ovarian
  GI50: 1830 nM
  TGI: 3.32 µM
UACC-62 melanoma
  GI50: 1810 nM
  TGI: 3.25 µM
HCT-15 colon
  GI50: 1830 nM
  TGI: 3.35 µM
MDA-MB-468 breast
  GI50: 1680 nM
  TGI: 3.29 µM
786-0 renal
  GI50: 1890 nM
  TGI: 3.61 µM
TK-10 renal
  GI50: 2480 nM
  TGI: 6.23 µM
HS 578T breast
  GI50: 1670 nM
  TGI: 3.06 µM

Source: PubChem BioAssay (NCI)
